Measurements: paper PMC9856044 (Biomolecules, 2023)

Target: poly A–poly U (AU-RNA)
Assay: Fluorimetric titration with AU-RNA
Format: binding
Description: Materials. Polynucleotides were purchased as noted: poly A–poly U, calf thymus ctDNA, poly(dAdT)2 and poly(dGdC)2 (Sigma-Aldrich, St. Louis, MI, USA). Polynucleotides were dissolved in Na-cacodylate buffer, I = 0.05 mol dm^−3, pH = 7.0. The calf thymus ctDNA was additionally sonicated and filtered through a […]. Polynucleotide concentration was determined spectroscopically as the concentration of phosphates. Spectrophotometric titrations were performed at pH = 7.0 (I = 0.05 mol dm^−3, sodium cacodylate buffer) by adding aliquots of polynucleotide solution into the solution of the studied compound for fluorimetric experiments and CD experiments were done by adding aliquots of the compound stock solution into the solution of a polynucleotide. In fluorimetric experiments, an excitation wavelength of λexc = 425, 431, 423, 427, 406 and 407 nm, respectively, was used to avoid the inner filter effect caused due to increasing absorbance of the polynucleotide. Emission was collected in the range λem = 400–700 nm. Values for Ka obtained by processing titration data using the Scatchard equation [27], all have satisfactory correlation coefficients (≥0.98). Furthermore, linear changes were evident with increasing DNA or RNA concentration in most titrations. The exceptions to this were titrations of cyanine 3 with GC-DNA and titrations of dye 5 with ds-DNA and ds-RNA where sufficient data points in the non-linear part of the curve allowed estimation of binding affinity (Ka values were of the order 10^5 mol^−1 dm^−3; Figures S16, S22 and S23 in SI). Titration data were collected at a high excess of polynucleotide binding sites (r[1–6]/[nucleotide phosphate] < 0.1; see Figures S9–S26 in SI) where each molecule can bind to a separate binding site. Binding affinities of dye-DNA/RNA complexes were calculated by non-linear fitting using the Scatchard equation [27, 33]. The fluorescence changes of dye 5 in the titration with AT-DNA were too small to obtain an accurate binding constant (Figure S21 in SI).

C[n+]1c(/C=C2\Sc3ccccc3N2CCCS)[se]c2ccccc21 [Compound 5, 2-((3-(3-mercaptopropyl)benzo[d]thiazol-2(3H)-ylidene)methyl)-3-methylbenzo[d][1,3]selenazol-3-ium methosulphate]
log Ka (AU-RNA): 5
Ka (order of magnitude) (ds-RNA (AU-RNA), sodium cacodylate buffer, pH 7.0, I = 0.05 mol dm^−3, Scatchard equation): ~10^5 mol^−1 dm^−3
K (fit parameter of titration curve) (poly A – poly U, pH=7.0, sodium cacodylate buffer, I = 0.05 mol dm-3): 133756.34591 ±30379564.80418
